Tested on: 188146-221-R-J1-PDC complex spheroid viability
Experiment: Anticancer human tumor 188146-221-R-J1-PDC patient-derived colon adenocarcinoma cell line growth inhibition [POLQ]
Details: for IC50: curve of first compound; for viability, T/C: stronger effect = lower value
Procedure, shortened: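 Patient-derived tumour cells were co-cultured with HUVEC and mesenchymal stem cells as multicellular spheroids at 37 °C. They were treated with POLQ inhibitors (novobiocin, ART-558, RP6685) alone or combined with other agents. Top concentrations were at or near clinical Cmax (otherwise 10 microM; SN-38 at 1 microM), decreasing in half-log steps.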

[1] = second compound 0.0316 µM, first compound 0.00316 µM
[2] = second compound 0.0316 µM, first compound 0.01 µM
[3] = second compound 0.0316 µM, first compound 0.0316 µM
[4] = second compound 0.0316 µM, first compound 0.1 µM
[5] = second compound 0.0316 µM, first compound 0.316 µM
[6] = second compound 0.0316 µM, first compound 1 µM
[7] = second compound 0.1 µM, first compound 0.00316 µM
[8] = second compound 0.1 µM, first compound 0.01 µM
[9] = second compound 0.1 µM, first compound 0.0316 µM
[10] = second compound 0.1 µM, first compound 0.1 µM
[11] = second compound 0.1 µM, first compound 0.316 µM
[12] = second compound 0.1 µM, first compound 1 µM
[13] = second compound 0.316 µM, first compound 0.00316 µM
[14] = second compound 0.316 µM, first compound 0.01 µM
[15] = second compound 0.316 µM, first compound 0.0316 µM
[16] = second compound 0.316 µM, first compound 0.1 µM
[17] = second compound 0.316 µM, first compound 0.316 µM
[18] = second compound 0.316 µM, first compound 1 µM
[19] = second compound 1 µM, first compound 0.00316 µM
[20] = second compound 1 µM, first compound 0.01 µM
[21] = second compound 1 µM, first compound 0.0316 µM
[22] = second compound 1 µM, first compound 0.1 µM
[23] = second compound 1 µM, first compound 0.316 µM
[24] = second compound 1 µM, first compound 1 µM
[25] = second compound 3.16 µM, first compound 0.00316 µM
[26] = second compound 3.16 µM, first compound 0.01 µM
[27] = second compound 3.16 µM, first compound 0.0316 µM
[28] = second compound 3.16 µM, first compound 0.1 µM
[29] = second compound 3.16 µM, first compound 0.316 µM
[30] = second compound 3.16 µM, first compound 1 µM
[31] = second compound 10 µM, first compound 0.00316 µM
[32] = second compound 10 µM, first compound 0.01 µM
[33] = second compound 10 µM, first compound 0.0316 µM
[34] = second compound 10 µM, first compound 0.1 µM
[35] = second compound 10 µM, first compound 0.316 µM
[36] = second compound 10 µM, first compound 1 µM
[37] = second compound 0.0316 µM, first compound 3.16 µM
[38] = second compound 0.0316 µM, first compound 10 µM
[39] = second compound 0.1 µM, first compound 3.16 µM
[40] = second compound 0.1 µM, first compound 10 µM
[41] = second compound 0.316 µM, first compound 3.16 µM
[42] = second compound 0.316 µM, first compound 10 µM
[43] = second compound 1 µM, first compound 3.16 µM
[44] = second compound 1 µM, first compound 10 µM
[45] = second compound 3.16 µM, first compound 3.16 µM
[46] = second compound 3.16 µM, first compound 10 µM
[47] = second compound 10 µM, first compound 3.16 µM
[48] = second compound 10 µM, first compound 10 µM
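Note: spheroids exposed to compounds for seven days.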
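Throughout, for viability, T/C: 100% = DMSO vehicle control viability.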

With `C=CCn1c(=O)c2cnc(Nc3ccc(N4CCN(C)CC4)cc3)nc2n1-c1cccc(C(C)(C)O)n1` + Cc1cccc(N(C)C(=O)C2C(O)CCN2c2nc(C)cc(C(F)(F)F)c2C#N)c1 the IC50 (second compound 0.0316 µM) was greater than 1 µM, the IC50 (second compound 0.1 µM) was greater than 1 µM and the IC50 (second compound 0.316 µM) was greater than 1 µM. The IC50 (second compound 1 µM) was greater than 1 µM, the IC50 (second compound 3.16 µM) was greater than 1 µM and the IC50 (second compound 10 µM) was 0.754 µM. For the same compound, the viability, T/C [1] was 109%, the viability, T/C [2] was 113% and the viability, T/C [3] was 104%. It also gave a viability, T/C [4] of 105%, a viability, T/C [5] of 103% and a viability, T/C [6] of 60.9%. It also gave a viability, T/C [7] of 112%, a viability, T/C [8] of 109% and a viability, T/C [9] of 119%. For the same compound, the viability, T/C [10] was 114%, the viability, T/C [11] was 115% and the viability, T/C [12] was 51.5%. For the same compound, the viability, T/C [13] was 92.3%, the viability, T/C [14] was 88.7% and the viability, T/C [15] was 105%. It also gave a viability, T/C [16] of 107%, a viability, T/C [17] of 110% and a viability, T/C [18] of 59.5%. For the same compound, the viability, T/C [19] was 109%, the viability, T/C [20] was 98.5% and the viability, T/C [21] was 105%. For the same compound, the viability, T/C [22] was 99%, the viability, T/C [23] was 112% and the viability, T/C [24] was 57.8%. The viability, T/C [25] was 90.6%, the viability, T/C [26] was 101% and the viability, T/C [27] was 114%. The viability, T/C [28] was 102%, the viability, T/C [29] was 89.7% and the viability, T/C [30] was 56.9%. For the same compound, the viability, T/C [31] was 90.7%, the viability, T/C [32] was 92.2% and the viability, T/C [33] was 104%. The viability, T/C [34] was 90.4%, the viability, T/C [35] was 97% and the viability, T/C [36] was 35.4%.
With `CCc1c2c(nc3ccc(O)cc13)-c1cc3c(c(=O)n1C2)COC(=O)[C@]3(O)CC` + Cc1cccc(N(C)C(=O)C2C(O)CCN2c2nc(C)cc(C(F)(F)F)c2C#N)c1 the IC50 (second compound 0.0316 µM) was 0.0187 µM, the IC50 (second compound 0.1 µM) was 0.0247 µM and the IC50 (second compound 0.316 µM) was 0.0243 µM. The IC50 (second compound 1 µM) was 0.0238 µM, the IC50 (second compound 3.16 µM) was 0.0221 µM and the IC50 (second compound 10 µM) was 0.0168 µM. It also gave a viability, T/C [1] of 106%, a viability, T/C [2] of 64.3% and a viability, T/C [3] of 39.6%. The viability, T/C [4] was 17.9%, the viability, T/C [5] was 11.2% and the viability, T/C [6] was 6.74%. The viability, T/C [7] was 102%, the viability, T/C [8] was 81.4% and the viability, T/C [9] was 39.9%. The viability, T/C [10] was 19.9%, the viability, T/C [11] was 10.1% and the viability, T/C [12] was 8.21%. It also gave a viability, T/C [13] of 99.1%, a viability, T/C [14] of 87.7% and a viability, T/C [15] of 38.2%. For the same compound, the viability, T/C [16] was 15.9%, the viability, T/C [17] was 11.5% and the viability, T/C [18] was 6.74%. For the same compound, the viability, T/C [19] was 101%, the viability, T/C [20] was 78.2% and the viability, T/C [21] was 40.7%. It also gave a viability, T/C [22] of 17.3%, a viability, T/C [23] of 9.53% and a viability, T/C [24] of 8.73%. It also gave a viability, T/C [25] of 86.1%, a viability, T/C [26] of 73.7% and a viability, T/C [27] of 39.1%. The viability, T/C [28] was 16.7%, the viability, T/C [29] was 13.6% and the viability, T/C [30] was 8.63%. For the same compound, the viability, T/C [31] was 92.2%, the viability, T/C [32] was 65.1% and the viability, T/C [33] was 31.2%. It also gave a viability, T/C [34] of 17%, a viability, T/C [35] of 15.2% and a viability, T/C [36] of 9.83%.
Work on `Nc1ccn(C2OC(CO)C(O)C2(F)F)c(=O)n1` (stereo not drawn) + Cc1cccc(N(C)C(=O)C2C(O)CCN2c2nc(C)cc(C(F)(F)F)c2C#N)c1 yielded an IC50 (second compound 0.0316 µM) of less than 0.0316 µM, an IC50 (second compound 0.1 µM) of less than 0.0316 µM and an IC50 (second compound 0.316 µM) of less than 0.0316 µM. It also gave an IC50 (second compound 1 µM) of less than 0.0316 µM, an IC50 (second compound 3.16 µM) of less than 0.0316 µM and an IC50 (second compound 10 µM) of less than 0.0316 µM. It also gave a viability, T/C [3] of 35.5%, a viability, T/C [4] of 20.8% and a viability, T/C [5] of 14.7%. The viability, T/C [6] was 18.1%, the viability, T/C [37] was 17.1% and the viability, T/C [38] was 10.2%. It also gave a viability, T/C [9] of 41%, a viability, T/C [10] of 23.8% and a viability, T/C [11] of 15.2%. For the same compound, the viability, T/C [12] was 15.9%, the viability, T/C [39] was 14.9% and the viability, T/C [40] was 11.3%. For the same compound, the viability, T/C [15] was 31.9%, the viability, T/C [16] was 20.5% and the viability, T/C [17] was 14.2%. It also gave a viability, T/C [18] of 15%, a viability, T/C [41] of 16.9% and a viability, T/C [42] of 14.1%. The viability, T/C [21] was 28.1%, the viability, T/C [22] was 25.9% and the viability, T/C [23] was 20.2%. For the same compound, the viability, T/C [24] was 16.2%, the viability, T/C [43] was 14.3% and the viability, T/C [44] was 10.8%. The viability, T/C [27] was 24.6%, the viability, T/C [28] was 22.5% and the viability, T/C [29] was 15.8%. For the same compound, the viability, T/C [30] was 16.5%, the viability, T/C [45] was 17.8% and the viability, T/C [46] was 11.1%. It also gave a viability, T/C [33] of 31.1%, a viability, T/C [34] of 19.1% and a viability, T/C [35] of 20.3%. It also gave a viability, T/C [36] of 22%, a viability, T/C [47] of 20.5% and a viability, T/C [48] of 11.4%.
`O=C(c1cc(Cc2n[nH]c(=O)c3ccccc23)ccc1F)N1CCN(C(=O)C2CC2)CC1` + Cc1cccc(N(C)C(=O)C2C(O)CCN2c2nc(C)cc(C(F)(F)F)c2C#N)c1 showed an IC50 (second compound 0.0316 µM) greater than 10 µM, an IC50 (second compound 0.1 µM) greater than 10 µM and an IC50 (second compound 0.316 µM) greater than 10 µM. The IC50 (second compound 1 µM) was greater than 10 µM, the IC50 (second compound 3.16 µM) was greater than 10 µM and the IC50 (second compound 10 µM) was greater than 10 µM. For the same compound, the viability, T/C [3] was 109%, the viability, T/C [4] was 105% and the viability, T/C [5] was 108%. For the same compound, the viability, T/C [6] was 92.8%, the viability, T/C [37] was 93.9% and the viability, T/C [38] was 73.9%. The viability, T/C [9] was 108%, the viability, T/C [10] was 103% and the viability, T/C [11] was 101%. It also gave a viability, T/C [12] of 101%, a viability, T/C [39] of 89.5% and a viability, T/C [40] of 88.8%. For the same compound, the viability, T/C [15] was 105%, the viability, T/C [16] was 102% and the viability, T/C [17] was 95.6%. It also gave a viability, T/C [18] of 101%, a viability, T/C [41] of 90.2% and a viability, T/C [42] of 77.8%. For the same compound, the viability, T/C [21] was 109%, the viability, T/C [22] was 106% and the viability, T/C [23] was 96.7%. The viability, T/C [24] was 103%, the viability, T/C [43] was 87.7% and the viability, T/C [44] was 78.4%. The viability, T/C [27] was 89.5%, the viability, T/C [28] was 102% and the viability, T/C [29] was 106%. It also gave a viability, T/C [30] of 86.7%, a viability, T/C [45] of 93.1% and a viability, T/C [46] of 76.9%. It also gave a viability, T/C [33] of 99.8%, a viability, T/C [34] of 90.1% and a viability, T/C [35] of 96.3%. The viability, T/C [36] was 98.2%, the viability, T/C [47] was 95.6% and the viability, T/C [48] was 82.1%.

Reference: PubChem BioAssay AID1963851 (Molecular Pharmacology Branch, DTP, NCI, 2024)
